Test system: adult intensive care patients with acute moderate and severe TBI
Assay: NOSTRA phase III trial: Extended Glasgow Outcome Scale (eGOS) at 3 and 6 months, Ronopterin 17 mg/kg infused over 48 hours vs placebo, incl. post hoc subgroup analyses
Assay type: in vivo, human
Details: for Good Recovery (eGOS ≥ 7) at 6 months, Odds ratio, 95% CI / Improvement in eGOS from 3 to 6 months, at least + 1 eGOS level, Odds ratio, 95% CI / Good Recovery (eGOS ≥ 7) at 3 months, Odds ratio, 95% CI: vs placebo
Procedure: A phase III trial of Ronopterin infusion to adult TBI patients (18-60 years) with acute moderate and severe TBI was performed. Based on the results of the earlier phase II study, the NOSTRA (NO Synthase in TRAumatic Brain Injury) phase III trial was designed to detect clinically relevant differences in clinical outcome (Extended Glasgow Outcome Score at 6 months after injury) as primary endpoint.
NOSTRA III was a multicentre, prospective, two parallel groups, blinded, placebo-controlled, randomised phase III trial of Ronopterin infusion for 48 hours in adult intensive care patients with acute moderate and severe TBI. […] The detailed study protocol is described by Tegtmeier et al. Efficacy of Ronopterin (VAS203) in Patients with Moderate and Severe Traumatic Brain Injury (NOSTRA phase III trial): study protocol of a confirmatory, placebo-controlled, randomised, double blind, multi-centre study. Trials. 2020. A total of 224 evaluable patients with moderate and severe TBI were enrolled in 32 centres in Austria, France, Germany, Spain, and United Kingdom. The trial started on 24 Aug. 2016 with last-patient last-visit on 17 Jun. 2020.
Patients between 18 and 60 years of age with Glasgow Coma Score≥3 requiring intracranial pressure (ICP) monitoring were enrolled. Other inclusion criteria were TBI within the last 18 hours but at least 6 hours after the injury, which were expected to survive more than 24 hours after admission.
Ronopterin and placebo (0.9% saline) were infused continuously via central venous catheter at a constant rate. A total dose of 17 mg/kg body weight of Ronopterin was infused for 48 hours (daily dose 8.5 mg/kg body weight).
The primary outcome was the difference between eGOS in Ronopterin and placebo treated patients at 6 months after trauma. The eGOS was determined by a face to face meeting by trained assessors.
The null-hypothesis of no shift across the 8 ordered categories of eGOS for the two treatment groups was tested after six months based on a proportional odds model stratified by age (18-39 years and 40-60 years). The treatment effect was estimated using ordinal Logistic regression model as the (proportional) odds ratio of Ronopterin versus Placebo. Treatment and age (18-39 years and 40-60 years) were included in the model. The proportional odds assumption was tested using a Chi-Square Score Test.
As secondary efficacy endpoint the eGOS at 3 months was analysed using the same statistics.
The main objective of the post hoc analyses was to estimate the effect size of VAS203 compared with placebo for the primary endpoint eGOS-I in the subgroups time to infusion ≤12 hours and >12 hours. Supportive analyses were conducted by age group (<40 years, ≥40 years) because age group was used as a stratification factor in the study. Comparability between treatment groups regarding demographics as well as severity and location of disease was investigated using similar methods as in the main CSR.
The proportions of patients per eGOS-I level at 3 months and at 6 months were calculated. For the change in eGOS-I over time, the proportion of patients with changes from 3 to 6 months were calculated by eGOS-I level, and in addition categorised as decreased (i.e. any decrease in eGOS-I level from 3 to 6 months), unchanged (i.e. no change in eGOS-I level from 3 to 6 months), and increased (i.e. any increase in eGOS-I level from 3 to 6 months).
Ordinal logistic regression was used for the analysis of eGOS-I at 3 months and at 6 months, including treatment group and age group (<40 years, ≥40 years) as factors in the model. Estimated odds ratios for the comparison of the VAS203 and placebo groups of >1 mean that eGOS-I was higher in the VAS203 group than in the placebo group across the 8 levels, whereas odds ratios of <1 mean that eGOS-I was lower in the VAS203 group than in the placebo group. Odds ratios together with their 95% CIs were used to estimate and assess the size of the treatment effect of VAS203 compared to placebo. […]

Structure (SMILES): CC(O)C(O)C1CNc2nc(N)nc(N)c2N1 [Ronopterin, 4-Amino-(6R,S)-5,6,7,8-tetrahydro-L-biopterin]
- Good Recovery (eGOS ≥ 7) at 6 months, Odds ratio, 95% CI (All females 40-60 years (so in the source), >12 hours): 5.5 (0.6-53);
- Good Recovery (eGOS ≥ 7) at 6 months, Odds ratio, 95% CI (All females, all times to infusion): 2.8 (0.6-12.6); n = 44
- Improvement in eGOS from 3 to 6 months, at least + 1 eGOS level, Odds ratio, 95% CI (All males 18-60 years and young females 18-39 years, ≤12 hours): 3.4 (1.2-10.2);
- Improvement in eGOS from 3 to 6 months, at least + 1 eGOS level, Odds ratio, 95% CI (All males 18-60 years, ≤12 hours): 3.7 (1.1-12);
- Good Recovery (eGOS ≥ 7) at 6 months, Odds ratio, 95% CI (All males plus females 18-39 years, ≤12 hours): 2.4 (0.8-7.6);
- Good Recovery (eGOS ≥ 7) at 3 months, Odds ratio, 95% CI (Female, 18-39 years, >12 hours): 6.5 (0.27-161);
- Good Recovery (eGOS ≥ 7) at 6 months, Odds ratio, 95% CI (Female, 18-39 years, >12 hours): 2.3 (0.2-33);
- Improvement in eGOS from 3 to 6 months, at least + 1 eGOS level, Odds ratio, 95% CI (Female, 18-39 years, >12 hours): 0.3 (0.04-2.8);
- Good Recovery (eGOS ≥ 7) at 3 months, Odds ratio, 95% CI (Female, 18-39 years, ≤12 hours): 1.5 (0.06-41);
- Good Recovery (eGOS ≥ 7) at 6 months, Odds ratio, 95% CI (Female, 18-39 years, ≤12 hours): 6.0 (0.2-163);
- Improvement in eGOS from 3 to 6 months, at least + 1 eGOS level, Odds ratio, 95% CI (Female, 18-39 years, ≤12 hours): 1.5 (0.06-41);
- Good Recovery (eGOS ≥ 7) at 3 months, Odds ratio, 95% CI (Female, 40-60 years, >12 hours): 4.2 (0.2-102);
- Good Recovery (eGOS ≥ 7) at 6 months, Odds ratio, 95% CI (Female, 40-60 years, >12 hours): 6.2 (0.3-147);
- Improvement in eGOS from 3 to 6 months, at least + 1 eGOS level, Odds ratio, 95% CI (Female, 40-60 years, >12 hours): 1.3 (0.1-18);
- Good Recovery (eGOS ≥ 7) at 3 months, Odds ratio, 95% CI (Female, 40-60 years, ≤12 hours): 1.3 (0.02-83);
- Good Recovery (eGOS ≥ 7) at 6 months, Odds ratio, 95% CI (Female, 40-60 years, ≤12 hours): 0.3 (0.01-11.3);
- Improvement in eGOS from 3 to 6 months, at least + 1 eGOS level, Odds ratio, 95% CI (Female, 40-60 years, ≤12 hours): 0.3 (0.01-11.3);
- Good Recovery (eGOS ≥ 7) at 3 months, Odds ratio, 95% CI (Females 18-39 years, all times to infusion): 4.2 (0.4-47); n = 23
- Good Recovery (eGOS ≥ 7) at 3 months, Odds ratio, 95% CI (Females 40-60 years, all times to infusion): 5.7 (0.3-126); n = 21
- Good Recovery (eGOS ≥ 7) at 3 months, Odds ratio, 95% CI (Male, 18-39 years, >12 hours): 0.2 (0.03-0.85);
- Improvement in eGOS from 3 to 6 months, at least + 1 eGOS level, Odds ratio, 95% CI (Male, 18-39 years, >12 hours): 0.7 (0.2-1.9);
- Good Recovery (eGOS ≥ 7) at 6 months, Odds ratio, 95% CI (Male, 18-39 years, time to infusion >12 hours): 0.6 (0.2-1.6);
- Good Recovery (eGOS ≥ 7) at 6 months, Odds ratio, 95% CI (Male, 18-39 years, time to infusion ≤12 hours): 1.4 (0.3-5.9);
- Good Recovery (eGOS ≥ 7) at 3 months, Odds ratio, 95% CI (Male, 18-39 years, ≤12 hours): 0.4 (0.08-2.2);
- Improvement in eGOS from 3 to 6 months, at least + 1 eGOS level, Odds ratio, 95% CI (Male, 18-39 years, ≤12 hours): 5.4 (1.1-26);
- Good Recovery (eGOS ≥ 7) at 3 months, Odds ratio, 95% CI (Male, 40-60 years, >12 hours): 0.2 (0.02-1.4);
- Good Recovery (eGOS ≥ 7) at 6 months, Odds ratio, 95% CI (Male, 40-60 years, >12 hours): 0.6 (0.2-2.2);
- Improvement in eGOS from 3 to 6 months, at least + 1 eGOS level, Odds ratio, 95% CI (Male, 40-60 years, >12 hours): 0.98 (0.3-2.8);
- Good Recovery (eGOS ≥ 7) at 3 months, Odds ratio, 95% CI (Male, 40-60 years, ≤12 hours): 0.7 (0.01-38);
- Good Recovery (eGOS ≥ 7) at 6 months, Odds ratio, 95% CI (Male, 40-60 years, ≤12 hours): 9.0 (0.4-194);
- Improvement in eGOS from 3 to 6 months, at least + 1 eGOS level, Odds ratio, 95% CI (Male, 40-60 years, ≤12 hours): 2.3 (0.4-14.6);
- increase in eGOS levels from 3 to 6 months (age 18-39 years, >12 hours (FIG. 7E)): up to 3 levels
- number of patients with increase in eGOS by at least 2 levels from 3 to 6 months (age 18-39 years, >12 hours (FIG. 7G)): 10
- less patients with decrease in eGOS over time vs placebo: significance (age 18-39 years, all times to infusion): not significant
- increase in eGOS levels from 3 to 6 months (age 18-39 years, all times to infusion (FIG. 6A)): up to 3 levels
- number of patients with increase in eGOS by at least 2 levels from 3 to 6 months (age 18-39 years, all times to infusion (FIG. 6C)): 14
- more patients with higher increase in eGOS over time vs placebo: significance (age 18-39 years, all times to infusion (FIG. 6D)): not significant
- increase in eGOS levels from 3 to 6 months (age 18-39 years, ≤12 hours (FIG. 7A)): up to 3 levels
- increase in proportion of patients with an eGOS increase by at least 1 level compared to Placebo: significance (age 18-39 years, ≤12 hours (FIG. 7B, 7D)): significant
- number of patients with increase in eGOS by at least 2 levels from 3 to 6 months (age 18-39 years, ≤12 hours (FIG. 7C)): 4
- increase in eGOS levels from 3 to 6 months (age 40-60 years, >12 hours (FIG. 9E)): up to 4 levels
- number of patients with increase in eGOS by at least 2 levels from 3 to 6 months (age 40-60 years, >12 hours (FIG. 9G)): 5
- less patients with a decrease in eGOS over time vs placebo: significance (age 40-60 years, all times to infusion): not (statistically) significant
- increase in eGOS levels from 3 to 6 months (age 40-60 years, all times to infusion (FIG. 8A)): up to 4 levels
